Our source for the IC50 values is patent publication US11292801B2, “Calpain modulators and therapeutic uses thereof” (Blade Therapeutics, Inc., priority 2016, dated 2022).

For one assay, the target named is T1, Human Calpain 2/NS1 (Homo sapiens, UniProt P17655).
T1 sequence (P17655 1-700): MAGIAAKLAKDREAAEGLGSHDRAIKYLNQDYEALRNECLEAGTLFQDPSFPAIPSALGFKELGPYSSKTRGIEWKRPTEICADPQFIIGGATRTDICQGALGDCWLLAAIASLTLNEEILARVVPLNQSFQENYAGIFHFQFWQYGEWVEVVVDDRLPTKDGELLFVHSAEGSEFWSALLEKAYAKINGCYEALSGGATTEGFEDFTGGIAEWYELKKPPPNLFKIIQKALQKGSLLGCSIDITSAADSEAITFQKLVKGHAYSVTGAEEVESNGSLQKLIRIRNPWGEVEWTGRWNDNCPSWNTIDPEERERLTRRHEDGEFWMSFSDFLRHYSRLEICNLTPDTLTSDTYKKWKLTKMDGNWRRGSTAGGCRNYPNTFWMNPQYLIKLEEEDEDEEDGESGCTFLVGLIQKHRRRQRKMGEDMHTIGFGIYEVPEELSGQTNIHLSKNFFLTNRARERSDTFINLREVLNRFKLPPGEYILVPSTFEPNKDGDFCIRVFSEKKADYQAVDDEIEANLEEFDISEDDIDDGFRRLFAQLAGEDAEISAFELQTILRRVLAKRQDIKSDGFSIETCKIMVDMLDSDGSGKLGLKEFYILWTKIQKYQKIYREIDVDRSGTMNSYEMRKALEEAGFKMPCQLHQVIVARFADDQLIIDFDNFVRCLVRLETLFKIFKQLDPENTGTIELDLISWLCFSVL
T1 sequence (P04632 1-268 partner): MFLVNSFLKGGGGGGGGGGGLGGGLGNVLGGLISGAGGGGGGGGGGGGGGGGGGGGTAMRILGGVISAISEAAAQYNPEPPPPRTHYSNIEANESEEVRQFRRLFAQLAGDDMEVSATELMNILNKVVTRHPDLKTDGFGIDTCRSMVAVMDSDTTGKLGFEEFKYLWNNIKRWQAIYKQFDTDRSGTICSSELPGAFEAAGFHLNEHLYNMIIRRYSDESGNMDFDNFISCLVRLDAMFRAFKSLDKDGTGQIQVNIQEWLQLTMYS
Description: Biochemical inhibition of calpain 2, continuous fluorescence (FRET substrate) assay. The note with it: mean, read-out: Human Calpain 2/NS1 IC50 (nM)_MEAN. The procedure, abridged:
(§1)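 IC50 values come from 4-parameter fits of progress-curve rates (1-5 min slopes) against log inhibitor concentration. Calpain and inhibitor premixed at ambient 25C in Tris pH ~7.5/NaCl/DTT buffer, then CaCl2 and FRET substrate added to activate; 5-FAM fluorescence (ex 490/em 520) followed 10 min.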

The next assay deals with T2, Human Calpain 9/NS1 (Homo sapiens, UniProt O14815).
T2 sequence (O14815 1-690): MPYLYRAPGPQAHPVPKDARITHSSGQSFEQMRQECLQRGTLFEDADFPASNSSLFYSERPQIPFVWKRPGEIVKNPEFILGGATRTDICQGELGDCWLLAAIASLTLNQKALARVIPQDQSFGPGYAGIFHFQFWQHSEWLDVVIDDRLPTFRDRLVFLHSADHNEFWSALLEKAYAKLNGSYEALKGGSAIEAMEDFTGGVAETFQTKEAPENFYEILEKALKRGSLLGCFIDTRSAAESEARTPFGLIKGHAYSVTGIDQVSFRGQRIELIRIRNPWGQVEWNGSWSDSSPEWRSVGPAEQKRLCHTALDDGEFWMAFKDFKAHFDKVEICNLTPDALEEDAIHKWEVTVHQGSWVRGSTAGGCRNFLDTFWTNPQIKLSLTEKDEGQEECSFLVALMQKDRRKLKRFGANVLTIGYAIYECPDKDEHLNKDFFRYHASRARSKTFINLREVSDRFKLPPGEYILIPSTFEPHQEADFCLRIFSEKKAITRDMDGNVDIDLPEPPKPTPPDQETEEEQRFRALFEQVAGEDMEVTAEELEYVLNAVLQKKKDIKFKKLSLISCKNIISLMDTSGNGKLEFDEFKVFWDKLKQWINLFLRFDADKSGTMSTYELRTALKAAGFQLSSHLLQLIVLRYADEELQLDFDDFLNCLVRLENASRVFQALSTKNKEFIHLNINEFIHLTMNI
T2 sequence (P04632 1-268 partner): T1 sequence (P04632 1-268 partner)
Description: Biochemical inhibition of calpain 9, continuous fluorescence (FRET substrate) assay. The note with it: mean, read-out: Human Calpain 9/NS1 IC50 (nM)_MEAN. The procedure, abridged: as §1

In another assay the target is T3, Human Calpain 1/NS1 (Homo sapiens, UniProt P07384).
T3 sequence (P07384 1-714): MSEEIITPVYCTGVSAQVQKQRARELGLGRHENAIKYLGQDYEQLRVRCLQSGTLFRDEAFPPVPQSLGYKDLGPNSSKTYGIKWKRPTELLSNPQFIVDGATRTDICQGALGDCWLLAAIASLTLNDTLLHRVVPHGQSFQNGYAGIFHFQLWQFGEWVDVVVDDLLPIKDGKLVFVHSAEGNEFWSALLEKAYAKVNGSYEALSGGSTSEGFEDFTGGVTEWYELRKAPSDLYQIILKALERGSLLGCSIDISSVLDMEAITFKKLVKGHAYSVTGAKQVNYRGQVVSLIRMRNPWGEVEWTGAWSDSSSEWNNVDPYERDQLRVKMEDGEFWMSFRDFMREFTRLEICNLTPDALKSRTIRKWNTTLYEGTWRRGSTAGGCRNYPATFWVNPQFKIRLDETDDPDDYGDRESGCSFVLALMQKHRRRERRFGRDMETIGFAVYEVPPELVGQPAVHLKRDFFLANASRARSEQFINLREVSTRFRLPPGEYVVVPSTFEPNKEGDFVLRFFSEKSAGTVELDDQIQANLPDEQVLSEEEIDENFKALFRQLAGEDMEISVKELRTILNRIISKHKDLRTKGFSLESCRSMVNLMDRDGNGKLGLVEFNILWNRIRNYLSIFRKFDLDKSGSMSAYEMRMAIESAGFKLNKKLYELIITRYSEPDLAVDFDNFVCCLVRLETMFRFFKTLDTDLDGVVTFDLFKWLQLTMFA
T3 sequence (P04632 1-268 partner): T1 sequence (P04632 1-268 partner)
Briefly: Biochemical inhibition of calpain 1, continuous fluorescence (FRET substrate) assay. The conditions noted are these: mean, read-out: Human Calpain 1/NS1 IC50 (nM)_MEAN. The method in brief:
as §1

Take `CCOC(=O)CCNC(=O)C(=O)[C@@H]1C/C=C\COCCOCc2ccccc2C(=O)N1` [Compound 60, Ethyl (S,Z)-3-(2-oxo-2-(12-oxo-1,3,4,6,9,10,11,12-octahydrobenzo[f][1,4]dioxa[9]azacyclotetradecin-10-yl)acetamido)propanoate]: the IC50 on Human Calpain 2/NS1, at Human Calpain 9/NS1 and at Human Calpain 1/NS1 was more than 10000 nM each time.
`CN(C)CCCNC(=O)C(=O)C1CCCCOCCOCc2ccccc2C(=O)N1` (stereo not drawn) [Compound 93, N-(3-(dimethylamino)propyl)-2-oxo-2-(12-oxo-1,3,4,6,7,8,9,10,11,12-decahydrobenzo[f][1,4]dioxa[9]azacyclotetradecin-10-yl)acetamide]: the IC50 at Human Calpain 2/NS1, at Human Calpain 9/NS1 and at Human Calpain 1/NS1 was more than 10000 nM each time.
`O=C[C@@H]1Cc2ccc(cc2)OCCCCOc2cccc(c2)-c2ccn(n2)-c2ncccc2C(=O)N1` [Compound 46, (6S,E)-4-oxo-2^1H-9,14-dioxa-5-aza-3(2,3)-pyridina-2(3,1)-pyrazola-1(1,3),8(1,4)-dibenzenacyclotetradecaphane-6-carbaldehyde]: the IC50 on Human Calpain 2/NS1, at Human Calpain 9/NS1 and at Human Calpain 1/NS1 was less than 3000 nM throughout.
For the compound `O=C(NCCCN1CCOCC1)C(=O)C1CCCCOCCOCc2ccccc2C(=O)N1` (stereo not drawn) [Compound 92, N-(3-morpholinopropyl)-2-oxo-2-(12-oxo-1,3,4,6,7,8,9,10,11,12-decahydrobenzo[f][1,4]dioxa[9]azacyclotetradecin-10-yl)acetamide], the IC50 at Human Calpain 2/NS1 was more than 10000 nM; at Human Calpain 9/NS1 it was 3000 to 10000 nM; at Human Calpain 1/NS1, more than 10000 nM.
With `O=C(NCCc1ccc(Cl)cc1)C(=O)[C@@H]1CCCCOCCOCc2ccccc2C(=O)N1` [Compound 128, (S)—N-(4-chlorophenethyl)-2-oxo-2-(12-oxo-1,3,4,6,7,8,9,10,11,12-decahydrobenzo[f][1,4]dioxa[9]azacyclotetradecin-10-yl)acetamide], the IC50 on Human Calpain 2/NS1 was less than 3000 nM; on Human Calpain 9/NS1 it was less than 3000 nM; at Human Calpain 1/NS1 it was 3000 to 10000 nM.
For the compound `NC(=O)C(=O)[C@@H]1CCCCCCOc2ccnc(n2)-c2ccccc2C(=O)N1` [Compound 134, (S)-2-oxo-2-(3-oxo-12-oxa-4-aza-1(2,4)-pyrimidina-2(1,2)-benzenacyclododecaphane-5-yl)acetamide], the IC50 at Human Calpain 2/NS1, on Human Calpain 9/NS1 and on Human Calpain 1/NS1 was less than 3000 nM throughout.
As to `O=C(NC1CC1)C(=O)[C@@H]1C/C=C/COCCOCc2ccccc2C(=O)N1` [Compound 79, (S,E)-N-cyclopropyl-2-oxo-2-(12-oxo-1,3,4,6,9,10,11,12-octahydrobenzo[f][1,4]dioxa[9]azacyclotetradecin-10-yl)acetamide], the IC50 was more than 10000 nM on Human Calpain 2/NS1, 3000 to 10000 nM on Human Calpain 9/NS1 and more than 10000 nM on Human Calpain 1/NS1.
On to `Cc1cc(C)cc(CNC(=O)C(=O)C2CCCCOCCOCc3ccccc3C(=O)N2)c1` (stereo not drawn) [Compound 111, N-(3,5-dimethylbenzyl)-2-oxo-2-(12-oxo-1,3,4,6,7,8,9,10,11,12-decahydrobenzo[f][1,4]dioxa[9]azacyclotetradecin-10-yl)acetamide], for which the IC50 on Human Calpain 2/NS1 is 3000 to 10000 nM; on Human Calpain 9/NS1, less than 3000 nM; on Human Calpain 1/NS1, more than 10000 nM.
In the same order, the values of `O=C[C@@H]1C/C=C/CCCCCc2cccnc2C(=O)N1` [Compound 48, (S,E)-15-Oxo-6,7,8,9,12,13,14,15-octahydro-5h-pyrido[2,3-c][1]aza-cyclotridecine-13-carbaldehyde] are 3000 to 10000 nM, less than 3000 nM and more than 10000 nM.
For `CCOc1ccccc1CNC(=O)C(=O)C1CCCCOCCOCc2ccccc2C(=O)N1` (stereo not drawn) [Compound 102, N-(2-ethoxybenzyl)-2-oxo-2-(12-oxo-1,3,4,6,7,8,9,10,11,12-decahydrobenzo[f][1,4]dioxa[9]azacyclotetradecin-10-yl)acetamide], in that order: less than 3000 nM, less than 3000 nM and 3000 to 10000 nM.
For `O=C(NC1CC1)C(=O)[C@@H]1Cc2ccc(cc2)OC/C=C/COc2cccc(c2)-c2ccn(n2)-c2ncccc2C(=O)N1` [Compound 70, N-cyclopropyl-2-oxo-2-((2^2E,6S,11E)-4-oxo-2^1H-9,14-dioxa-5-aza-3(2,3)-pyridina-2(3,1)-pyrazola-1(1,3),8(1,4)-dibenzenacyclotetradecaphan-11-en-6-yl)acetamide], the IC50 at Human Calpain 2/NS1, on Human Calpain 9/NS1 and on Human Calpain 1/NS1 was less than 3000 nM throughout.
For the compound `O=C[C@@H]1CC=CCCCCCc2ncccc2C(=O)N1` [Compound 50, (S)-5-Oxo-6,7,8,11,12,13,14,15-octahydro-5h-pyrido[3,2-c][1]aza-cyclotridecine-7-carbaldehyde], the IC50 at Human Calpain 2/NS1 was 3000 to 10000 nM; on Human Calpain 9/NS1, less than 3000 nM; on Human Calpain 1/NS1, more than 10000 nM.
Take `CON(C)C(=O)[C@@H]1C/C=C\CCOc2ccnc(n2)-c2ccccc2C(=O)N1` [Compound 136, (S,Z)—N-methoxy-N-methyl-3-oxo-11-oxa-4-aza-1(2,4)-pyrimidina-2(1,2)-benzenacycloundecaphan-7-ene-5-carboxamide]: the IC50 at Human Calpain 2/NS1, at Human Calpain 9/NS1 and on Human Calpain 1/NS1 was more than 10000 nM in each case.
As for `COc1cc(CNC(=O)C(=O)C2CCCCOCCOCc3ccccc3C(=O)N2)cc(OC)c1` (stereo not drawn) [Compound 119, N-(3,5-dimethoxybenzyl)-2-oxo-2-(12-oxo-1,3,4,6,7,8,9,10,11,12-decahydrobenzo[f][1,4]dioxa[9]azacyclotetradecin-10-yl)acetamide], the IC50 at Human Calpain 2/NS1 was 3000 to 10000 nM; on Human Calpain 9/NS1, less than 3000 nM; on Human Calpain 1/NS1, more than 10000 nM.
With `O=C[C@@H]1C/C=C/CCCCCCc2ccccc2C(=O)N1` [Compound 10, (S,E)-1-Oxo-1,2,3,4,7,8,9,10,11,12-decahydrobenzo[c][1]aza-cyclotetradecine-3-carbaldehyde], the IC50 was less than 3000 nM on Human Calpain 2/NS1, less than 3000 nM at Human Calpain 9/NS1 and 3000 to 10000 nM on Human Calpain 1/NS1.
